Laboratory results from patent US7622492B2, “Pyrazolones as inhibitors of 11β-hydroxysteroid dehydrogenase” (Hoffmann-La Roche Inc., priority 2005, dated 2009).

Experiments:
human HSD1 = human HSD1 (Homo sapiens, UniProt P28845); test: In vitro inhibition of purified human HSD1 (time-resolved fluorescence cortisol detection); format: biochemical; conditions: purified human HSD1, cortisone substrate, 30 min; read-out: hHSD1 IC50
Description: Purified human HSD1 was diluted in 50 mM Tris-HCl, 100 mM NaCl, 0.1 mg/ml BSA, 0.02% Lubrol, 20 mM MgCl2, 10 mM glucose 6-phosphate, 0.4 mM NADPH, 60 U/ml glucose 6-phosphate dehydrogenase to a concentration of 1.5 μg/ml (Enzyme Solution). […] Testing compounds (40 μM) in DMSO was diluted 3 fold in series in DMSO and further diluted 20 fold in Substrate Solution. Enzyme Solution (10 μl/well) was added into 384 well microtiter plates followed by diluted compound solutions (10 μl/well) and mixed well. Samples were then incubated at […] for 30 min. EDTA/biotin-cortisol solution (10 μl/well) in 28 mM EDTA, […], 50 mM Tris-HCl, 100 mM NaCl was then added followed by 5 ul/well of anti-cortisol antibody (3.2 μg/ml) in 50 mM Tris-HCl, 100 mM NaCl, 0.1 mg/ml BSA and the solution was incubated at 37 degrees for 30 min. […] Signals were quantitated by reading time-resolved fluorescence on a Victor 5 reader (Wallac).

human 11betaHSD1 = molecular target: T1, human 11betaHSD1 (Homo sapiens, UniProt P28845); test: Cell-based assay: HEK-293 cells stably transfected with human 11betaHSD1, cortisol by competitive ELISA; conditions: HEK-293 cells stably transfected with full-length human 11betaHSD1 cDNA, cortisone 100 nM, 1 hour
T1 construct: HEK-293 cells stably transfected with full-length human 11betaHSD1 cDNA; expressed in transfected cells; host or cells: HEK-293
Description: The following day, serially diluted 11bHSD1 inhibitor compounds dissolved in DMSO were added to plating media supplemented with BSA (2 mg/ml final). The final DMSO concentration was 1%. Media was aspirated from plates, and compounds in media were added to each well. The plates were incubated at 37° C. for 1 hour to allow for cellular uptake of compounds. 10 μL of substrate (cortisone) was then added to each well (100 nM final concentration) and incubated for 1 hour at 37° C. Plates were then transferred to ice and 80 μL of media transferred to a 96-well plate and stored at −30° C.
Plates were washed with PBS, 0.1% Tween-20, then washed with PBS alone. Plates were blocked with Blocking Buffer (Tropix Cat# AI075) for 2 hours at room temperature. The plates were then washed as previously described. Assay samples were thawed, diluted 1:4 in DMEM, 2 mg/mL BSA, 1% DMSO, and 24 μL was transferred to wells of a pre-coated 384-well plate, as well as varying amounts of cortisol standard. To each well, 12 μL of cortisol-conjugate and 12 μL of anti-cortisol EIA antibody were added and incubated 2 hrs at room temperature on a orbital plate shaker. The wells were then emptied by inversion, then washed three times with 100 μL of Wash Buffer (Tropix), and then 2 times with 100 μL of Assay Buffer (Tropix). 60 μL of CDP-STAR (Tropix) was added to each well and incubated 10 minutes at room temperature. Chemiluminescence was measured using a Victor V Reader (Perkin Elmer). Cortisol in each sample was interpolated from a standard curve generated with known amounts of cortisol. IC50 values were calculated using the curve fitting software XLFit3 (IDBS).

T1 sequence (P28845 whole entry): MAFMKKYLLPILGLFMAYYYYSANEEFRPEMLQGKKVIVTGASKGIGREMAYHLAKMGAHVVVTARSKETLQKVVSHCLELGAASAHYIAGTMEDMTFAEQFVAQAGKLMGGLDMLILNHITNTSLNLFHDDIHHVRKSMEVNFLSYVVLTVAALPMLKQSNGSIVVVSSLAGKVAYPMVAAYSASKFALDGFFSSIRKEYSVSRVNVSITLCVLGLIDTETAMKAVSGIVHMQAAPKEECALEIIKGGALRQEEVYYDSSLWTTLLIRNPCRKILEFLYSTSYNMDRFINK
Chain of human HSD1 (P28845 whole entry): as above

Cn1c2c(c(=O)n1-c1ccccc1F)[C@H]1CC[C@]2(C)C1(C)C [Example 12, (4S,7R)-2-(2-Fluoro-phenyl)-1,7,8,8-tetramethyl-1,2,4,5,6,7-hexahydro-4,7-methano-indazol-3-one]
IC50 (human HSD1): 291 nM | IC50 (human 11betaHSD1): 19 nM

Cn1c2c(c(=O)n1-c1ccc(F)cc1)[C@H]1CC[C@]2(C)C1(C)C [Example 17, (4S,7R)-2-(4-Fluoro-phenyl)-1,7,8,8-tetramethyl-1,2,4,5,6,7-hexahydro-4,7-methano-indazol-3-one]
IC50 (human HSD1): 1720 nM | IC50 (human 11betaHSD1): 110 nM

Cc1cccc(-n2c(=O)c3c(n2C)[C@]2(C)CC[C@H]3C2(C)C)c1C [Example 21, (4S,7R)-2-(2,3-Dimethyl-phenyl)-1,7,8,8-tetramethyl-1,2,4,5,6,7-hexahydro-4,7-methano-indazol-3-one]
IC50 (human HSD1): 10 nM | IC50 (human 11betaHSD1): 19 nM

Cn1c2c(c(=O)n1Cc1cccc(F)c1)[C@H]1CC[C@]2(C)C1(C)C [Example 32, (4S,7R)-2-(3-Fluoro-benzyl)-1,7,8,8-tetramethyl-1,2,4,5,6,7-hexahydro-4,7-methano-indazol-3-one]
IC50 (human HSD1): 23 nM | IC50 (human 11betaHSD1): 60 nM

COc1cccc(Cn2c(=O)c3c(n2C)[C@]2(C)CC[C@H]3C2(C)C)c1 [Example 34, (4S,7R)-2-(3-Methoxy-benzyl)-1,7,8,8-tetramethyl-1,2,4,5,6,7-hexahydro-4,7-methano-indazol-3-one]
IC50 (human HSD1): 472 nM | IC50 (human 11betaHSD1): 134 nM

Cn1c2c(c(=O)n1Cc1ccc(F)cc1C(F)(F)F)[C@H]1CC[C@]2(C)C1(C)C [Example 37, (4S,7R)-2-(4-Fluoro-2-trifluoromethyl-benzyl)-1,7,8,8-tetramethyl-1,2,4,5,6,7-hexahydro-4,7-methano-indazol-3-one]
IC50 (human 11betaHSD1): 27 nM

Cn1c2c(c(=O)n1Cc1ccc(C(N)=O)cc1)[C@H]1CC[C@]2(C)C1(C)C [Example 39, (4S,7R)-4-(1,7,8,8-Tetramethyl-3-oxo-1,3,4,5,6,7-hexahydro-4,7-methano-indazol-2-ylmethyl)-benzamide]
IC50 (human HSD1): 101 nM | IC50 (human 11betaHSD1): 243 nM

Cn1c2c(c(=O)n1-c1cccc(-c3ccccc3)c1)[C@H]1CC[C@]2(C)C1(C)C [Example 43, (4S,7R)-2-Biphenyl-3-yl-1,7,8,8-tetramethyl-1,2,4,5,6,7-hexahydro-4,7-methano-indazol-3-one]
IC50 (human HSD1): 59 nM | IC50 (human 11betaHSD1): 25 nM

CC1(C)[C@@H]2CC[C@@]1(C)c1c2c(=O)n(-c2ccccc2)n1CCc1ccccc1 [Example 66, (4S,7R)-7,8,8-Trimethyl-1-phenethyl-2-phenyl-1,2,4,5,6,7-hexahydro-4,7-methano-indazol-3-one]
IC50 (human 11betaHSD1): 19 nM

CC(C)c1cccc(-n2c(=O)c3c(n2C)[C@]2(C)CC[C@H]3C2(C)C)c1 [Example 75, (4S,7R)-2-(3-Isopropyl-phenyl)-1,7,8,8-tetramethyl-1,2,4,5,6,7-hexahydro-4,7-methano-indazol-3-one]
IC50 (human 11betaHSD1): 17 nM

Cn1c2c(c(=O)n1-c1ccc(O)cc1)[C@H]1CC[C@]2(C)C1(C)C [Example 76, (4S,7R)-2-(4-Hydroxy-phenyl)-1,7,8,8-tetramethyl-1,2,4,5,6,7-hexahydro-4,7-methano-indazol-3-one]
IC50 (human 11betaHSD1): 20 nM

CC(C)CCn1c2c(c(=O)n1-c1ccc(F)cc1F)[C@H]1CC[C@]2(C)C1(C)C [Example 87, (4S,7R)-2-(2,4-Difluoro-phenyl)-7,8,8-trimethyl-1-(3-methyl-butyl)-1,2,4,5,6,7-hexahydro-4,7-methano-indazol-3-one]
IC50 (human 11betaHSD1): 14 nM

CC(C)(C)c1ccc(Cn2c3c(c(=O)n2-c2ccc(F)cc2F)[C@H]2CC[C@]3(C)C2(C)C)cc1 [Example 98, (4S,7R)-1-(4-tert-Butyl-benzyl)-2-(2,4-difluoro-phenyl)-7,8,8-trimethyl-1,2,4,5,6,7-hexahydro-4,7-methano-indazol-3-one]
IC50 (human 11betaHSD1): 28 nM

COc1ccc(Cn2c3c(c(=O)n2-c2ccc(F)cc2F)[C@H]2CC[C@]3(C)C2(C)C)cc1 [Example 99, (4S,7R)-2-(2,4-Difluoro-phenyl)-1-(4-methoxy-benzyl)-7,8,8-trimethyl-1,2,4,5,6,7-hexahydro-4,7-methano-indazol-3-one]
IC50 (human 11betaHSD1): 14 nM

CC1(C)[C@@H]2CC[C@@]1(C)c1c2c(=O)n(-c2ccc(F)cc2F)n1Cc1ccc(C(F)(F)F)cc1 [Example 103, (4S,7R)-2-(2,4-Difluoro-phenyl)-7,8,8-trimethyl-1-(4-trifluoromethyl-benzyl)-1,2,4,5,6,7-hexahydro-4,7-methano-indazol-3-one]
IC50 (human 11betaHSD1): 11 nM

COc1ncccc1Cn1c2c(c(=O)n1-c1ccc(F)cc1F)[C@@H]1CC[C@@]2(C)C1(C)C [Example 113, (4R,7S)-2-(2,4-Difluoro-phenyl)-1-(2-methoxy-pyridin-3-ylmethyl)-7,8,8-trimethyl-1,2,4,5,6,7-hexahydro-4,7-methano-indazol-3-one]
IC50 (human 11betaHSD1): 36 nM

CC1(C)[C@H]2CC[C@]1(C)c1c2c(=O)n(-c2ccc(F)cc2Cl)n1Cc1ccccc1 [Example 120, (4R,7S)-1-Benzyl-2-(2-chloro-4-fluoro-phenyl)-7,8,8-trimethyl-1,2,4,5,6,7-hexahydro-4,7-methano-indazol-3-one]
IC50 (human 11betaHSD1): 18 nM

CC1(C)[C@H]2CC[C@]1(C)c1c2c(=O)n(-c2ccc(F)cc2Cl)n1Cc1ccc(F)cc1F [Example 122, (4R,7S)-2-(2-Chloro-4-fluoro-phenyl)-1-(2,4-difluoro-benzyl)-7,8,8-trimethyl-1,2,4,5,6,7-hexahydro-4,7-methano-indazol-3-one]
IC50 (human 11betaHSD1): 21 nM

CC1(C)[C@@H]2CC[C@@]1(C)c1c2c(=O)n(-c2ccc(F)cc2Cl)n1Cc1ccc(F)cc1F [Example 123, (4S,7R)-2-(2-Chloro-4-fluoro-phenyl)-1-(2,4-difluoro-benzyl)-7,8,8-trimethyl-1,2,4,5,6,7-hexahydro-4,7-methano-indazol-3-one]
IC50 (human 11betaHSD1): 9 nM

Cn1c2c(c(=O)n1-c1cccc(Cl)c1Cl)[C@H]1CC[C@]2(C)C1(C)C [Example 126, (4S,7R)-2-(2,3-Dichloro-phenyl)-1,7,8,8-tetramethyl-1,2,4,5,6,7-hexahydro-4,7-methano-indazol-3-one]
IC50 (human 11betaHSD1): 6 nM

Cn1c2c(c(=O)n1-c1cc(C(F)(F)F)ccc1F)[C@H]1CC[C@]2(C)C1(C)C [Example 132, (4S,7R)-2-(2-Fluoro-5-trifluoromethyl-phenyl)-1,7,8,8-tetramethyl-1,2,4,5,6,7-hexahydro-4,7-methano-indazol-3-one]
IC50 (human 11betaHSD1): 210 nM

Cn1c2c(c(=O)n1-c1cc(F)ccc1C(F)(F)F)[C@H]1CC[C@]2(C)C1(C)C [Example 133, (4S,7R)-2-(5-Fluoro-2-trifluoromethyl-phenyl)-1,7,8,8-tetramethyl-1,2,4,5,6,7-hexahydro-4,7-methano-indazol-3-one]
IC50 (human 11betaHSD1): 21 nM

Cc1cccc(-n2c(=O)c3c(n2Cc2ccccc2)[C@@]2(C)CC[C@@H]3C2(C)C)c1C [Example 137, (4R,7S)-1-Benzyl-2-(2,3-dimethyl-phenyl)-7,8,8-trimethyl-1,2,4,5,6,7-hexahydro-4,7-methano-indazol-3-one]
IC50 (human 11betaHSD1): 4 nM

Cn1c2c(c(=O)n1-c1ccc3ccccc3c1)[C@H]1CC[C@]2(C)C1(C)C [Example 144, (4S,7R)-1,7,8,8-Tetramethyl-2-naphthalen-2-yl-1,2,4,5,6,7-hexahydro-4,7-methano-indazol-3-one]
IC50 (human 11betaHSD1): 24 nM

CC1(C)[C@H]2CC[C@]1(C)c1c2c(=O)n(-c2ccc3ccccc3c2)n1Cc1ccccc1 [Example 145, (4R,7S)-1-Benzyl-7,8,8-trimethyl-2-naphthalen-2-yl-1,2,4,5,6,7-hexahydro-4,7-methano-indazol-3-one]
IC50 (human 11betaHSD1): 21 nM

Cc1nc(Cn2c(=O)c3c(n2Cc2ccccc2)[C@@]2(C)CC[C@@H]3C2(C)C)cs1 [Example 150, (4R,7S)-1-Benzyl-7,8,8-trimethyl-2-(2-methyl-thiazol-4-ylmethyl)-1,2,4,5,6,7-hexahydro-4,7-methano-indazol-3-one]
IC50 (human 11betaHSD1): 208 nM
